Experimental data: US11407736B2 (priority 2019, dated 2022)
pIC50: −log10 of the molar value. Where two headings read alike, the source gives them in different places.

What was measured:
U937 cells = experiment: U937 cell necroptosis assay (TNFa + zVAD, CellTiter-Glo); type: cell-based, human; settings: Homo sapiens
Procedure: (§1) In this example, U937 and L929 cells were exposed to compounds of the present disclosure and a cell necroptosis assay was conducted to evaluate the compounds' activity against human RIP1 and murine RIP1.
(§2) U937 and L929 cells were obtained from the American Type Culture Collection (Manassa, Va., USA). Both cells were maintained in logarithmic growth phase in complete RPMI 1640 media (Sigma, ST Louis, Mo., USA) supplemented with 10% fetal bovine serum (Sigma, ST Louis, Mo., USA) at 37° C. with 5% CO2. For necroptosis assay, L929 cells were plated for 18 h in 100 μL/well medium at 10K cells/well in Costar 96-well black clear-bottom plates (Fisher Scientific, Hampton, N.H., USA); U937 cells were plated on the day of the assay in 50 4/well medium containing 60 uM zVAD-fink (Lonza, Basel, Switzerland) at 50K cells/well. Medium from L929 cells were removed from the 96-well plates and replaced with 50 μL/well new medium containing 40 uM zVAD-fink. Each compound of the present disclosure evaluated in this example was serially diluted in DMSO from 2.5 mM in 4-fold dilutions, and then diluted 1:125 in complete medium. 50 μL/well 2× of the compound was then added to the cells in the plates. The cells were pre-incubated with the compound for 1 hour at 37° C. with 5% CO2 and before addition of 10 μL/well 1 1×TNFa (Peprotech, Rocky Hill, N.J., USA) to give a final concentration of 2 ng/mL for TNFa. The relative amount of necroptosis cells was determined by luminescent using a Wallac Victor2 Luminometer (PerkinElmer, Waltham, Mass., USA) and a CellTiter-Glo® Luminescent Cell Viability Reagent Assay (Promega, Madison, Wis., USA) added per manufacturer instructions after 18 hours of TNFa stimulation at 37° C. with 5% CO2. This example establishes that embodiments of the compounds described herein have unexpectedly potent activity against human RIP1 and murine RIP1, which allows their assessment in in vivo mouse models of disease.

L929 cells = experiment: L929 cell necroptosis assay (TNFa + zVAD, CellTiter-Glo); type: cell-based, murine; settings: Mus musculus
Procedure: as §1
as §2, with “The cells were pre-incubated with the compound for 1 hour at 37° C. with 5% CO2 and before addition of 10 μL/well 1 1×TNFa (Peprotech, Rocky Hill, N.J., USA) to give a final concentration of 2 ng/mL for TNFa.” left out, “CO2.” for “CO2. This example establishes that embodiments of the compounds described herein have unexpectedly potent activity against human RIP1 and murine RIP1, which allows their assessment in in vivo mouse models of disease.”

[1] = U-937, U937 cells, TNFa + zVAD, read-out: U937 Zvad TNF CTG Recovery, U937, TNFa + zVAD (IC50)
[2] = L929, L929 cells, TNFa + zVAD, read-out: L929-CTG-recovery, L929, TNFa + zVAD (IC50)

Row | SMILES | pIC50 (U937 cells; [1]) | pIC50 (L929 cells; [2]) | pIC50 (L929 cells; L929 cells, TNFa + zVAD, read-out: L929-CTG-recovery, L929, TNFa + zVAD (IC50)) | pIC50 (U937 cells; U-937, read-out: U937 Zvad TNF CTG Recovery, U937, TNFa + zVAD (IC50), U937 cells, TNFa + zVAD) | pIC50 (L929 cells; L929, read-out: L929-CTG-recovery, L929, TNFa + zVAD (IC50), L929 cells, TNFa + zVAD)
1 | [2H]C([2H])([2H])C(O)(C#Cc1ccc2c(c1)N(C)C(=O)[C@@H](NC(=O)c1cc(Oc3ccccc3)ccn1)CO2)C([2H])([2H])[2H] [Compound I-68, (S)—N-(7-(3-hydroxy-3-(methyl-d3)but-1-yn-1-yl-4,4,4-d3)-5-methyl-4-oxo-2,3,4,5-tetrahydrobenzo[b][1,4]oxazepin-3-yl)-4-phenoxypicolinamide] | 9.15 | 9.52 | – | – | –
2 | [2H]C([2H])([2H])C(O)(C#Cc1ccc2c(c1)N(C)C(=O)[C@@H](NC(=O)c1n[nH]c(Cc3ccccc3)n1)CO2)C([2H])([2H])[2H] [Compound I-69, (S)-5-benzyl-N-(7-(3-hydroxy-3-(methyl-d3)but-1-yn-1-yl-4,4,4-d3)-5-methyl-4-oxo-2,3,4,5-tetrahydrobenzo[b][1,4]oxazepin-3-yl)-1H-1,2,4-triazole-3-carboxamide] | 8.66 | 9.05 | – | – | –
3 | CN1C(=O)[C@@H](NC(=O)c2n[nH]c(Cc3ccccc3)n2)COc2ccc(/C=C(\Cl)C(C)(C)O)cc21 [Compound I-94, (S,Z)-5-benzyl-N-(7-(2-chloro-3-hydroxy-3-methylbut-1-en-1-yl)-5-methyl-4-oxo-2,3,4,5-tetrahydrobenzo[b][1,4]oxazepin-3-yl)-1H-1,2,4-triazole-3-carboxamide] | 7.66 | – | 8.34 | – | –
4 | CN1C(=O)[C@@H](NC(=O)c2cc(Oc3ccccc3)ccn2)COc2ccc(C#CC3(O)COC3)cc21 [Compound I-110, (S)—N-(7-((3-hydroxyoxetan-3-yl)ethynyl)-5-methyl-4-oxo-2,3,4,5-tetrahydrobenzo[b][1,4]oxazepin-3-yl)-4-phenoxypicolinamide] | 9.40 | 7.73 | – | – | –
5 | CN1C(=O)[C@H](NC(=O)c2cc(Oc3ccccc3)ccn2)COc2ccc(C#CC(C)(C)O)cc21 [Compound I-113, (R)—N-(7-(3-hydroxy-3-methylbut-1-yn-1-yl)-5-methyl-4-oxo-2,3,4,5-tetrahydrobenzo[b][1,4]oxazepin-3-yl)-4-phenoxypicolinamide] | 7.50 | 5.63 | – | – | –
6 | CN1C(=O)[C@@H](NC(=O)c2cc(Oc3ccccc3)ccn2)COc2ccc(C#CC3(F)CNC3)cc21 [Compound I-143] | – | – | – | 8.46 | 6.70
7 | CC(C)N1CC(F)(C#Cc2ccc3c(c2)N(C)C(=O)[C@@H](NC(=O)c2cc(Oc4ccccc4)ccn2)CO3)C1 [Compound I-166, (S)—N-(7-((3-fluoro-1-isopropylazetidin-3-yl)ethynyl)-5-methyl-4-oxo-2,3,4,5-tetrahydrobenzo[b][1,4]oxazepin-3-yl)-4-phenoxypicolinamide] | 9.00 | 7.56 | – | – | –
8 | CN1C(=O)[C@@H](NC(=O)c2cc(Oc3ccccc3)ccn2)COc2ccc(C#CC3(F)CN(CC(F)(F)F)C3)cc21 [Compound I-168, (S)—N-(7-((3-fluoro-1-(2,2,2-trifluoroethyl)azetidin-3-yl)ethynyl)-5-methyl-4-oxo-2,3,4,5-tetrahydrobenzo[b][1,4]oxazepin-3-yl)-4-phenoxypicolinamide] | 9.05 | 6.99 | – | – | –
9 | CN1C(=O)[C@@H](NC(=O)c2cc(Oc3ccccc3)ccn2)COc2ccc(C#CC3(F)CN(CC4CC4)C3)cc21 [Compound I-169, (S)—N-(7-((1-(cyclopropylmethyl)-3-fluoroazetidin-3-yl)ethynyl)-5-methyl-4-oxo-2,3,4,5-tetrahydrobenzo[b][1,4]oxazepin-3-yl)-4-phenoxypicolinamide] | 8.66 | 6.83 | – | – | –
10 | CN1C(=O)[C@@H](NC(=O)c2cc(Oc3ccc(F)cc3)ccn2)COc2ccc(C#CC(C)(C)COC(=O)CCC(=O)O)cc21 [Compound I-170, (S)-4-((4-(3-(4-(4-fluorophenoxy)picolinamido)-5-methyl-4-oxo-2,3,4,5-tetrahydrobenzo[b][1,4]oxazepin-7-yl)-2,2-dimethylbut-3-yn-1-yl)oxy)-4-oxobutanoic acid] | 7.83 | 5.74 | – | – | –
11 | C[C@H](N)C(=O)OCC(C)(C)C#Cc1ccc2c(c1)N(C)C(=O)[C@@H](NC(=O)c1cc(Oc3ccc(F)cc3)ccn1)CO2 [Compound I-171, 4-((S)-3-(4-(4-fluorophenoxy)picolinamido)-5-methyl-4-oxo-2,3,4,5-tetrahydrobenzo[b][1,4]oxazepin-7-yl)-2,2-dimethylbut-3-yn-1-yl L-alaninate] | 8.19 | 6.40 | – | – | –
12 | CC(C)[C@H](N)C(=O)OCC(C)(C)C#Cc1ccc2c(c1)N(C)C(=O)[C@@H](NC(=O)c1cc(Oc3ccc(F)cc3)ccn1)CO2 [Compound I-172, 4-((S)-3-(4-(4-fluorophenoxy)picolinamido)-5-methyl-4-oxo-2,3,4,5-tetrahydrobenzo[b][1,4]oxazepin-7-yl)-2,2-dimethylbut-3-yn-1-yl L-valinate] | 7.66 | 6.07 | – | – | –
13 | CN1C(=O)[C@@H](NC(=O)c2cc(Oc3ccccc3)ccn2)COc2ccc(C#CC(C)(C)COP(=O)(O)O)cc21 [Compound I-173, (S)-2,2-dimethyl-4-(5-methyl-4-oxo-3-(4-phenoxypicolinamido)-2,3,4,5-tetrahydrobenzo[b][1,4]oxazepin-7-yl)but-3-yn-1-yl dihydrogen phosphate] | 7.31 | 5.54 | – | – | –
14 | CN1C(=O)[C@@H](NC(=O)c2cc(Oc3ccc(F)cc3)ccn2)COc2ccc(C#CC(C)(C)COP(=O)(O)O)cc21 [Compound I-174, (S)-4-(3-(4-(4-fluorophenoxy)picolinamido)-5-methyl-4-oxo-2,3,4,5-tetrahydrobenzo[b][1,4]oxazepin-7-yl)-2,2-dimethylbut-3-yn-1-yl dihydrogen phosphate] | 6.36 | 4.78 | – | – | –
15 | [2H]c1c([2H])c([2H])c(Oc2ccnc(C(=O)N[C@H]3COc4ccc(C#CC5(O)COC5)cc4N(C)C3=O)c2)c([2H])c1[2H] [Compound I-190, (S)—N-(7-((3-hydroxyoxetan-3-yl)ethynyl)-5-methyl-4-oxo-2,3,4,5-tetrahydrobenzo[b][1,4]oxazepin-3-yl)-4-(phenoxy-d5)picolinamide] | 9.22 | – | – | – | –
16 | CN1C(=O)[C@@H](NC(=O)c2cc(Oc3ccccc3)ccn2)COc2ccc(C#CC3(O)CN(CC4CC4)C3)cc21 [Compound I-196, (S)—N-(7-((1-(cyclopropylmethyl)-3-hydroxyazetidin-3-yl)ethynyl)-5-methyl-4-oxo-2,3,4,5-tetrahydrobenzo[b][1,4]oxazepin-3-yl)-4-phenoxypicolinamide] | 8.48 | 6.70 | – | – | –
17 | CC(=O)N1CC(O)(C#Cc2ccc3c(c2)N(C)C(=O)[C@@H](NC(=O)c2cc(Oc4ccccc4)ccn2)CO3)C1 [Compound I-197, (S)—N-(7-((1-acetyl-3-hydroxyazetidin-3-yl)ethynyl)-5-methyl-4-oxo-2,3,4,5-tetrahydrobenzo[b][1,4]oxazepin-3-yl)-4-phenoxypicolinamide] | 9.15 | 7.15 | – | – | –
18 | CCNC(=O)N1CC(O)(C#Cc2ccc3c(c2)N(C)C(=O)[C@@H](NC(=O)c2cc(Oc4ccccc4)ccn2)CO3)C1 [Compound I-198, (S)—N-(7-((1-(ethylcarbamoyl)-3-hydroxyazetidin-3-yl)ethynyl)-5-methyl-4-oxo-2,3,4,5-tetrahydrobenzo[b][1,4]oxazepin-3-yl)-4-phenoxypicolinamide] | 9.05 | 7.41 | – | – | –
